From PubChem BioAssay AID248 (DTP/NCI, 2004)
Toxic doses and inconclusive results are not listed. Rule as the data show it: active = T/C of 150% or more; inactive = T/C below 125%.

System: L1210 leukemia ip in BDF1 mice, survival T/C
Assay: NCI In Vivo Anticancer Drug Screen. Data for tumor model L1210 Leukemia (intraperitoneal) in B6D2F1 (BDF1) mice
Conditions: endpoint: mean survival time, higher = longer survival
How it was run: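 Antitumor effect is assessed in tumor-bearing animals. Survival in the compound arm is compared with a vehicle-dosed control arm and expressed as their quotient.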

[1] = dose: 100.0 mg/kg/injection, schedule: Q01DX009 (ip), vehicle: other
[2] = dose: 200.0 mg/kg/injection, schedule: Q01DX009 (ip), vehicle: other
[3] = dose: 100.0 mg/kg/injection, schedule: Q01DX009 (ip), vehicle: Klucel (hydroxypropylcellulose) (HPC)
[4] = dose: 200.0 mg/kg/injection, schedule: Q01DX009 (ip), vehicle: Klucel (hydroxypropylcellulose) (HPC)
[5] = dose: 100.0 mg/kg/injection, schedule: Q01DX009 (ip), vehicle: saline with Tween-80
[6] = dose: 200.0 mg/kg/injection, schedule: Q01DX009 (ip), vehicle: saline with Tween-80
[7] = dose: 400.0 mg/kg/injection, schedule: Q01DX009 (ip), vehicle: saline with Tween-80
[8] = dose: 100.0 mg/kg/injection, schedule: Q04DX003 (ip), vehicle: saline with Tween-80
[9] = dose: 200.0 mg/kg/injection, schedule: Q04DX003 (ip), vehicle: saline with Tween-80
[10] = dose: 400.0 mg/kg/injection, schedule: Q04DX003 (ip), vehicle: saline with Tween-80

Measured: T/C

CC(C)(CBr)C(=O)N1CCN(C(=O)C(C)(C)CBr)CC1
inactive: dose: 6.2 mg/kg/injection, schedule: Q01DX Z (ip), vehicle: carboxymethylcellulose (CMC) 109 % of control | dose: 9.2 mg/kg/injection, schedule: Q01DX Z (ip), vehicle: methylcellulose (MC) 94 % of control | dose: 9.4 mg/kg/injection, schedule: Q01DX Z (ip), vehicle: carboxymethylcellulose (CMC) 118 % of control | dose: 14.0 mg/kg/injection, schedule: Q01DX Z (ip), vehicle: carboxymethylcellulose (CMC) 116 % of control | dose: 14.0 mg/kg/injection, schedule: Q01DX Z (ip), vehicle: methylcellulose (MC) 103 % of control | dose: 21.0 mg/kg/injection, schedule: Q01DX Z (ip), vehicle: carboxymethylcellulose (CMC) 121 % of control | dose: 21.0 mg/kg/injection, schedule: Q01DX Z (ip), vehicle: methylcellulose (MC) 103 % of control | dose: 42.0 mg/kg/injection, schedule: Q01DX Z (ip), vehicle: methylcellulose (MC) 111 % of control | dose: 50.0 mg/kg/injection, schedule: Q01DX Z (ip), vehicle: methylcellulose (MC) 121 % of control | dose: 68.0 mg/kg/injection, schedule: Q01DX Z (ip), vehicle: methylcellulose (MC) 98 % of control

CC1SCC(NC(=O)NCCCl)CS1 (configuration not stated)
inactive: dose: 100.0 mg/kg/injection, schedule: Q04DX002 (ip), vehicle: gum acacia 103 % of control | dose: 200.0 mg/kg/injection, schedule: Q04DX002 (ip), vehicle: gum acacia 100 % of control | dose: 400.0 mg/kg/injection, schedule: Q04DX002 (ip), vehicle: gum acacia 100 % of control

C[C@@H]1CCC([C@@H](C)[C@H]2CC[C@H]3[C@@H]4CC[C@H]5C[C@@H](O)CC[C@]5(C)[C@H]4CC[C@]23C)=NC1
inactive: dose: 1.56 mg/kg/injection, schedule: Q01DX015 (ip), vehicle: saline 94 % of control | dose: 3.13 mg/kg/injection, schedule: Q01DX015 (ip), vehicle: saline 97 % of control | dose: 6.25 mg/kg/injection, schedule: Q01DX015 (ip), vehicle: saline 94 % of control | dose: 12.5 mg/kg/injection, schedule: Q01DX015 (ip), vehicle: saline 94 % of control | dose: 12.5 mg/kg/injection, schedule: Q01DX Z (ip), vehicle: saline 93 % of control | dose: 25.0 mg/kg/injection, schedule: Q01DX Z (ip), vehicle: saline 106 % of control | dose: 50.0 mg/kg/injection, schedule: Q01DX Z (ip), vehicle: saline 93 % of control | dose: 100.0 mg/kg/injection, schedule: Q01DX Z (ip), vehicle: saline 97 % of control | dose: 125.0 mg/kg/injection, schedule: Q01DX001 (ip), vehicle: saline 93 % of control

CNC(=O)Nc1ccccc1C(=O)NN
inactive: [1] 100 % of control | [2] 96 % of control

C/C=C/c1cc2c(c(=O)o1)C(=O)[C@@H](O)[C@H](C)O2
inactive: dose: 100.0 mg/kg/injection, schedule: Q01DX001 (ip), vehicle: carboxymethylcellulose (CMC) 92 % of control | dose: 200.0 mg/kg/injection, schedule: Q01DX001 (ip), vehicle: carboxymethylcellulose (CMC) 103 % of control | dose: 400.0 mg/kg/injection, schedule: Q01DX001 (ip), vehicle: carboxymethylcellulose (CMC) 94 % of control

CCCc1cnc(NCCCC(N)C(=O)O)nc1 (configuration not stated)
inactive: dose: 25.0 mg/kg/injection, schedule: Q04DX002 (ip), vehicle: saline 95 % of control | dose: 50.0 mg/kg/injection, schedule: Q04DX002 (ip), vehicle: saline 95 % of control | dose: 100.0 mg/kg/injection, schedule: Q04DX002 (ip), vehicle: saline 89 % of control

COc1ccc(Cl)cc1CCCO
inactive: dose: 50.0 mg/kg/injection, schedule: Q01DX001 (ip), vehicle: saline 100 % of control | dose: 100.0 mg/kg/injection, schedule: Q01DX001 (ip), vehicle: saline 100 % of control | dose: 200.0 mg/kg/injection, schedule: Q01DX001 (ip), vehicle: saline 92 % of control | dose: 400.0 mg/kg/injection, schedule: Q01DX001 (ip), vehicle: saline 119 % of control

Cc1ccc(S(=O)(=O)N(CCCc2c(C)nc(N)[nH]c2=O)c2ccccc2)cc1
inactive: dose: 50.0 mg/kg/injection, schedule: Q01DX009 (ip), vehicle: Klucel (hydroxypropylcellulose) (HPC) 102 % of control | [3] 91 % of control | [4] 95 % of control

CCC(C(N)=O)C1=CCCCC1 (configuration not stated)
inactive: [5] 95 % of control | [6] 93 % of control | [7] 98 % of control

CC(C)CNCc1ccc([N+](=O)[O-])cc1
inactive: dose: 75.0 mg/kg/injection, schedule: Q01DX001 (ip), vehicle: carboxymethylcellulose (CMC) 97 % of control | dose: 150.0 mg/kg/injection, schedule: Q01DX001 (ip), vehicle: carboxymethylcellulose (CMC) 95 % of control

N#Cc1cc(C#N)c(NN)nc1N
inactive: [8] 86 % of control | [9] 94 % of control | [10] 92 % of control

CCN(CC)CCCNc1cc(Cl)c(Cl)cc1[N+](=O)[O-]
inactive: dose: 12.0 mg/kg/injection, schedule: Q01DX009 (ip), vehicle: saline 104 % of control | dose: 25.0 mg/kg/injection, schedule: Q01DX009 (ip), vehicle: saline 95 % of control | dose: 50.0 mg/kg/injection, schedule: Q01DX009 (ip), vehicle: saline 91 % of control | dose: 100.0 mg/kg/injection, schedule: Q04DX003 (ip), vehicle: saline 95 % of control | dose: 200.0 mg/kg/injection, schedule: Q04DX003 (ip), vehicle: saline 90 % of control | dose: 400.0 mg/kg/injection, schedule: Q04DX003 (ip), vehicle: saline 96 % of control

CC(=O)c1c(OC(=O)c2ccccc2)cc(OC(=O)c2ccccc2)cc1OC(=O)c1ccccc1
inactive: [3] 101 % of control | dose: 100.0 mg/kg/injection, schedule: Q01DX009 (ip), vehicle: saline 97 % of control | [4] 93 % of control | dose: 200.0 mg/kg/injection, schedule: Q01DX009 (ip), vehicle: saline 106 % of control | dose: 400.0 mg/kg/injection, schedule: Q01DX009 (ip), vehicle: Klucel (hydroxypropylcellulose) (HPC) 95 % of control | dose: 400.0 mg/kg/injection, schedule: Q01DX009 (ip), vehicle: saline 100 % of control

CC1CCC2C1C1C(CCC2(C)O)C1(C)C (configuration not stated)
inactive: [1] 90 % of control | dose: 100.0 mg/kg/injection, schedule: Q04DX003 (ip), vehicle: saline sonified 103 % of control | [2] 95 % of control | dose: 200.0 mg/kg/injection, schedule: Q04DX003 (ip), vehicle: saline sonified 103 % of control | dose: 400.0 mg/kg/injection, schedule: Q01DX009 (ip), vehicle: other 98 % of control | dose: 400.0 mg/kg/injection, schedule: Q04DX003 (ip), vehicle: saline sonified 102 % of control

CCOC(=O)C1CC(C)=C(C)CC1C(=O)O (configuration not stated)
inactive: [5] 87 % of control | [8] 98 % of control | [6] 97 % of control | [9] 90 % of control | [7] 92 % of control | [10] 98 % of control

CCOc1ccn(CC(=O)c2ccc([N+](=O)[O-])o2)c(=O)n1
inactive: dose: 50.0 mg/kg/injection, schedule: Q01DX009 (ip), vehicle: saline with Tween-80 96 % of control | [5] 94 % of control | [8] 98 % of control | [9] 91 % of control

Clc1cc(Cl)c(I)c(Cl)c1
inactive: [3] 95 % of control | dose: 100.0 mg/kg/injection, schedule: Q04DX003 (ip), vehicle: Klucel (hydroxypropylcellulose) (HPC) 93 % of control | [4] 95 % of control | dose: 200.0 mg/kg/injection, schedule: Q04DX003 (ip), vehicle: Klucel (hydroxypropylcellulose) (HPC) 95 % of control | dose: 400.0 mg/kg/injection, schedule: Q04DX003 (ip), vehicle: Klucel (hydroxypropylcellulose) (HPC) 92 % of control

O=[N+]([O-])c1ccc(OCc2cc(S(=O)(=O)F)ccc2Cl)c(Cl)c1
inactive: dose: 75.0 mg/kg/injection, schedule: Q04DX003 (ip), vehicle: gum acacia 100 % of control | dose: 150.0 mg/kg/injection, schedule: Q04DX003 (ip), vehicle: gum acacia 96 % of control | dose: 300.0 mg/kg/injection, schedule: Q04DX003 (ip), vehicle: gum acacia 91 % of control

O=C(O)CCCCCCCCC1CC(F)(F)C(F)(F)S1 (configuration not stated)
inactive: [8] 92 % of control | [9] 96 % of control | [10] 92 % of control
